System: INS-1 cells transfected with prepro-hIAPP-HA
Assay: pro-hIAPP accumulation and apoptosis in transfected INS-1 cells
Assay type: cell-based, mice
Details: for accumulation of pro-hIAPP dimers: western blot, anti-HA
Method: (FIG. 13A) INS-1 cells transfected with non-amyloidogenic prepro-mIAPP-HA or amyloidogenic prepro-hIAPP-HA construct were treated with MSL or MSL-7 followed by western blot analysis using anti-HA antibody. (FIG. 13B) the transfected cells of (FIG. 13A) were treated with MSL-7 in the presence or absence of bafilomycin followed by western blot analysis using anti-HA antibody. (FIG. 13C) The transfected cells were treated with MSL-7 in the presence or absence of 3-MA, after which the amount of […] contained in the cell lysates were measured. (FIG. 13D) HFD-fed hIAPP+ mice were administered with MSL-7, and non-fasting glucose level was monitored. (FIG. 13E) IPGTT. (FIG. 13F) HFD-fed hIAPP+ mice were administered with MSL-7 for 8 weeks and the insulinogenic index was measured. (FIG. 13G) HFD-fed hIAPP+ mice were administered with MSL-7 for 8 weeks and the pancreatic section was obtained. All antibody was used for immunohistochemistry (left). The percentage of A11-[…] cells among DAPI+ cells (right). (FIG. 13H) FSB stained pancreatic section of HFD-fed hIAPP+ mice administered with MSL-7 for 8 weeks (left). Average fluorescence intensity/area (right).
Screening of autophagy enhancer. […] Luciferase assay. […] Firefly luciferase was determined after mixing 5 μl of lysate with 25 μl of Luciferase Assay Reagent II. Renilla luciferase was then determined after further addition of 20 ul of Stop&Glo Reagent. […] Cytotoxicity was determined by the measurement of LDH release in cell culture media using the LDH kit (Roche), according to the protocol from the manufacturer. […] Imaging and image quantification. […] Formation of acidic vesicular organelles was quantitated by staining the cells with acridine orange (Invitrogen, 5 ug/ml, 10 min). […] Cells or tissues were solubilized in lysis buffer supplemented with protease and phosphatase inhibitors and protein concentration was measured by the Bradford method. Ten to 30 micrograms were loaded on 4-12% Bis-Tris gel (NUPAGE, Invitrogen) or 8-15% SDS-PAGE, transferred to PVDF membranes and analyzed by western blot using the ECL method (Pierce). […]

SMILES	apoptosis of cells transfected with prepro-hIAPP (in the presence of 3-MA)	accumulation of pro-hIAPP dimers
COc1oc(-c2ccccc2Cl)nc1S(=O)(=O)c1ccccc1 [MSL-7, 2-(2-chlorophenyl)-5-methoxy-4-(phenylsulfonyl) oxazole]	significantly reduced	reduced
CSc1oc(-c2ccccc2)nc1S(=O)(=O)c1ccc(F)cc1 [MSL]	–	reduced

Source: patent US10881642B2, “Autophagy enhancer and use thereof” (Industry-Academic Cooperation Foundation, Yonsei University, priority 2016, dated 2021)
